Source: ChEMBL document CHEMBL1133531, “Carbonic anhydrase inhibitors: perfluoroalkyl/aryl-substituted derivatives of aromatic/heterocyclic sulfonamides as topical intraocular pressure-lowering agents with prolonged duration of action” (J Med Chem, 2000)

How the values were obtained:
Carbonic anhydrase 1 = Carbonic anhydrase 1 (Homo sapiens, UniProt P00915)
Description: Inhibition of human recombinant carbonic anhydrase I (CA1)

Carbonic anhydrase 4 = molecular target: T1, Carbonic anhydrase 4 (Bos taurus, UniProt Q95323)
T1 sequence (Q95323 whole entry): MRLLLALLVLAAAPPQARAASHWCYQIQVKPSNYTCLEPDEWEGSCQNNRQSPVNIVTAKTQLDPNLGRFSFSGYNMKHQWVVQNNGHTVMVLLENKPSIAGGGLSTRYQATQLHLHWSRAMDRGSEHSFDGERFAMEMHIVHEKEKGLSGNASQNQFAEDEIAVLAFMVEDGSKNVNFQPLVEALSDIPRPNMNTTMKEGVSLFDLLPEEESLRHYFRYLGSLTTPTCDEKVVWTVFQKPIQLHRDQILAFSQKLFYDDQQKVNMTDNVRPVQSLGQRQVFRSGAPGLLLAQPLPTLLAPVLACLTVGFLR
Description: Inhibition of bovine carbonic anhydrase IV (CA4) from bovine lung microsomes

Carbonic anhydrase 1, sequence (P00915 whole entry): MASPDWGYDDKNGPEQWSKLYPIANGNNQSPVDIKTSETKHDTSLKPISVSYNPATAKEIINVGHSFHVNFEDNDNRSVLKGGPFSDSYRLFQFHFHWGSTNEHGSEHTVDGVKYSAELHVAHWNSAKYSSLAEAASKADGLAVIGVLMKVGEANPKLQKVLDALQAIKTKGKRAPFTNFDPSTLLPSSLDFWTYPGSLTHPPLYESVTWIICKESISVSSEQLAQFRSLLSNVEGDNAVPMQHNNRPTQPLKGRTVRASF

SMILES | Ki (Carbonic anhydrase 1) | Ki (Carbonic anhydrase 4)
NS(=O)(=O)c1ccc(NS(=O)(=O)C(F)(F)F)c(Br)c1 | 200000 nM | 47000 nM
NS(=O)(=O)c1ccc(CNS(=O)(=O)C(F)(F)F)cc1 | 138000 nM | 24500 nM
NS(=O)(=O)c1ccc(Nc2ccnc(NS(=O)(=O)C(F)(F)F)n2)cc1 | 8000 nM | 39 nM
NS(=O)(=O)c1nc2ccc(OCCOC(=O)C(F)(F)C(F)(F)C(F)(F)C(F)(F)C(F)(F)C(F)(F)C(F)(F)C(F)(F)F)cc2s1 | 24 nM | 7 nM
NS(=O)(=O)c1ccc(NS(=O)(=O)c2ccc(NC(=O)c3c(F)c(F)c(F)c(F)c3F)cc2)cc1 | 6600 nM | 39 nM
NS(=O)(=O)c1ccc(COC(=O)c2c(F)c(F)c(F)c(F)c2F)cc1 | 1200 nM | 410 nM
NS(=O)(=O)c1nnc(NS(=O)(=O)C(F)(F)F)s1 | 59800 nM | 600 nM
Cn1nc(S(N)(=O)=O)s/c1=N/S(=O)(=O)c1ccc(NC(=O)c2c(F)c(F)c(F)c(F)c2F)cc1 | 1600 nM | 
NS(=O)(=O)c1cc(S(N)(=O)=O)c(NC(=O)c2c(F)c(F)c(F)c(F)c2F)cc1Cl | 750 nM | 54 nM
NS(=O)(=O)c1nc2ccc(NS(=O)(=O)C(F)(F)F)cc2s1 | 70 nM | 8 nM
Cn1nc(S(N)(=O)=O)s/c1=N/C(=O)C(F)(F)C(F)(F)C(F)(F)C(F)(F)C(F)(F)C(F)(F)C(F)(F)C(F)(F)F | 330 nM | 18 nM
NS(=O)(=O)c1nnc(NC(=O)CCNS(=O)(=O)C(F)(F)C(F)(F)C(F)(F)C(F)(F)C(F)(F)C(F)(F)C(F)(F)C(F)(F)F)s1 | 300 nM | 9 nM
Cn1nc(S(N)(=O)=O)sc1=NS(=O)(=O)C(F)(F)C(F)(F)C(F)(F)C(F)(F)C(F)(F)C(F)(F)C(F)(F)C(F)(F)F | 380 nM | 14 nM
NS(=O)(=O)c1ccc(CCNC(=O)c2c(F)c(F)c(F)c(F)c2F)cc1 | 900 nM | 310 nM
NS(=O)(=O)c1ccc(CCNS(=O)(=O)C(F)(F)C(F)(F)C(F)(F)C(F)(F)F)cc1 | 12500 nM | 240 nM

Further lines, results first:

Ki (Carbonic anhydrase 1) | Ki (Carbonic anhydrase 4) | SMILES
1850 nM | 840 nM | NS(=O)(=O)c1ccc(NNC(=O)C(F)(F)C(F)(F)C(F)(F)C(F)(F)C(F)(F)C(F)(F)C(F)(F)C(F)(F)F)cc1
1800 nM | 1500 nM | NS(=O)(=O)c1ccccc1NC(=O)C(F)(F)C(F)(F)C(F)(F)C(F)(F)C(F)(F)C(F)(F)C(F)(F)C(F)(F)F
900 nM | 12 nM | Cn1nc(S(N)(=O)=O)s/c1=N/S(=O)(=O)c1ccc(NC(=O)C(F)(F)C(F)(F)C(F)(F)C(F)(F)C(F)(F)C(F)(F)C(F)(F)C(F)(F)F)cc1
1400 nM | 550 nM | NS(=O)(=O)c1ccc(NC(=O)C(F)(F)C(F)(F)C(F)(F)C(F)(F)C(F)(F)C(F)(F)C(F)(F)C(F)(F)F)c(F)c1
3000 nM | 30 nM | NS(=O)(=O)c1cccc(NS(=O)(=O)c2ccc(NC(=O)C(F)(F)C(F)(F)C(F)(F)C(F)(F)C(F)(F)C(F)(F)C(F)(F)C(F)(F)F)cc2)c1
20000 nM | 12000 nM | NS(=O)(=O)c1ccc(CCOC(=O)C(F)(F)C(F)(F)C(F)(F)C(F)(F)C(F)(F)C(F)(F)C(F)(F)C(F)(F)F)cc1
3600 nM | 31 nM | NS(=O)(=O)c1ccc(NS(=O)(=O)c2ccc(NS(=O)(=O)C(F)(F)C(F)(F)C(F)(F)C(F)(F)F)cc2)cc1
28 nM | 8 nM | NS(=O)(=O)c1nc2ccc(OS(=O)(=O)C(F)(F)C(F)(F)C(F)(F)C(F)(F)C(F)(F)C(F)(F)C(F)(F)C(F)(F)F)cc2s1
3000 nM | 29 nM | NS(=O)(=O)c1ccc(NS(=O)(=O)c2ccc(NS(=O)(=O)C(F)(F)C(F)(F)C(F)(F)C(F)(F)C(F)(F)C(F)(F)C(F)(F)C(F)(F)F)cc2)cc1
15000 nM | 10900 nM | NS(=O)(=O)c1ccc(COS(=O)(=O)C(F)(F)C(F)(F)C(F)(F)C(F)(F)C(F)(F)C(F)(F)C(F)(F)C(F)(F)F)cc1
4000 nM | 40 nM | NS(=O)(=O)c1ccc(NS(=O)(=O)c2ccc(NS(=O)(=O)C(F)(F)F)cc2)cc1
